Laboratory results: patent publication EP1296995B1, “3'-PRODRUGS OF 2'-DEOXY-BETA-L-NUCLEOSIDES” (priority 2000, dated 2001)
≈ marks a conversion by molar mass, not a printed value. Entries after “also recorded” stand apart in the source; their conditions may differ. Where a name gives a salt, the structure may show the parent alone. Read-outs that look alike come from different tables or passages of the source.

How the values were obtained:
physchem [1] = assay: physchem
Procedure: (§1) To 1 mL of this solution, 1 mL of octanol-1 (B) saturated with 0.02 M phosphate buffer solution (A) was added. The resultant mixture was shaken and centrifuged; three samples from each phase was collected and analyzed by HPLC, as shown in Table 10. […]
as §1, with “The solution was then saturated with octanol-1 (B). To” for “To”, “11.” for “10.”

in vivo [2] = settings: monkey, po
[3] = Log P' study, MilliQ water / octanol-1; type: physicochemical; settings: for P' (B/A'): MilliQ water pH 6.5 (A') / octanol-1 (B), Study 1 and Study 2
in vivo [4] = assay: in vivo; design: species or system cynomologus monkeys (macaca fascicularis); settings: cynomolgus monkey
Source text: The drug was quantitated in plasma and urine with a liquid chromatography-mass spectrometry (LC-MS) technique.

[5] = Oral bioavailability of L-dC via dival-L-dC (HPLC); settings: cynomolgus monkey
Source text: The drug was quantitated in plasma and in urine using HPLC analysis.

in vivo [6] = settings: rat, po
in vivo [7] = settings: monkey
Source text: […]. […] Clinical observations were documented daily. Blood samples for hematology and serum chemistries were collected and body weight measured before treatment on Days 1, 4, 7, 10, and 14, and before necropsy on Day 17. After completion of Day 17 evaluations, all animals were euthanized and a complete necropsy performed, including macroscopic examination and comprehensive tissue collection.

in vivo [8] = settings: rat
Procedure: Clinical observations were documented once daily. Body weights were documented before dosing on Days 1, 8, 15, 22, and 28 and before necropsy on Day 29. Food consumption was documented weekly. Blood samples for hematology and serum chemistries also were collected before necropsy on Day 29.
Toxicokinetics. An additional 54 animals (27 males and 27 females) had samples collected for pharmacokinetic analyses on Days 1 and 28. […] Analysis of the 500 mg/kg group is in progress.

in vivo [9] = settings: monkey, po; remark: listed apart in the source
in vitro [10] = settings: human, plasma
in vitro [11] = settings: human, plasma; remark: listed apart in the source
[12] = Stability study in buffers at various pH; type: physicochemical
physchem [13] = settings: water
HBV [14] = assay: Antiviral activity against HBV in 2.2.15 cells (reduction of HBV DNA)
[15] = monkey, in vivo
in vitro [16] = settings: human, hepg2 cells
Source text: (§2) These studies included analysis of lactic acid production, mtDNA content and determination of changes in morphology (e.g., loss of cristae, matrix dissolution and swelling, and lipid droplet formation) of mitochondrial ultrastructure.

HepG2 cells = assay: in vitro
Source text: as §2

VZV = assay: Antiviral panel: VZV in HFF; type: cell-based
EBV = assay: Antiviral panel: EBV in Daudi; type: cell-based
WHV [17] = assay: Woodchuck model of chronic hepatitis B infection, 28 days; type: in vivo, woodchucks
WHV [18] = assay: Woodchuck model, twelve-week study; type: in vivo, woodchucks; settings: 1 mg/kg/day
Procedure: WHV DNA levels were determined by quantitative PCR.

[19] = test system: Salmonella typhimurium strains TA98, TA100, TA1535, and TA1537 and escherichia coli strain WP2uvrA; assay: S. typhimurium and E. coli plate incorporation mutation assay; type: cell-based
Procedure: L-dC was tested for its potential to cause mutation at the histidine operon of Salmonella typhimurium strains TA98, TA100, TA1535, and TA1537 and at the tryptophan opeton of escherichia coli strain WP2uvrA. L-dC at concentrations of […] plus positive and negative controls were tested. […] After incubation for approximately 68 hours, L-dC and controls were evaluated for the number of revertants per plate and integrity of the background microcolony lawn.

HIV-1 = settings: read-out: EC50 HIV-1 (PBMC)
[20] = monkey, in vivo; remark: listed apart in the source
2.2.15 = assay: Cytotoxicity in 2.2.15 cells
[21] = biological target: virion-associated DNA polymerase of WHV; assay: Endogenous polymerase assay, virion-associated DNA polymerase; type: biochemical
Rats Primary Hepatocytes = assay: Intracellular metabolism of L-dC in rat primary hepatocytes; settings: 10 µM L-dC, 24 hours
[22] = test system: Monkey Primary Hepatocytes; assay: Intracellular metabolism of L-dC in monkey primary hepatocytes; settings: 10 µM L-dC, 24 hours, n=1
HBV [23] = settings: human, 2.2.15 cells
[24] = rhesus monkey, in vivo, po
[25] = 0.02 m phosphate buffer, pH 7.2

`CC(=O)OC[C@@H]1O[C@H](n2ccc(N)nc2=O)C[C@H]1OC(C)=O` [3'5'-diacetyl-L-dC, 3',5'-Di-O-acetyl-2'-deoxy-β-L-cytidine] showed a logD (physchem [1]; [25]) of -0.74 and a bioavailability (in vivo [2]) of 23 ± 6.5%.

`CC(C)[C@H](N)C(=O)OC[C@@H]1O[C@H](n2ccc(N)nc2=O)C[C@H]1OC(=O)[C@@H](N)C(C)C` [3'5'-dival-L-dC, 3,5'-L-Valine ester of 2'-deoxy-β-L-cytidine hydrochloride] gave a logD (physchem [1]; [25]) of -0.86, a degraded (physchem [1]; octanol-1, pH 7.2) of 14% and a degraded (physchem [1]; phosphate buffer, pH 7.2) of 50%. The “P' (B/A')” value [3] was 1.80 x10^-3, the “P' (B/A')” value ([3]; listed as L-dC-3',5'-divalinyl ester hydrochloride, hydrochloride) was 1.77 x 10^-3 and the “conversion to the monoesters or L-dC during log P' experiment” value ([3]; aqueous or organic phases, MilliQ water) was “No conversion”. For the same molecule, the “share of drug excreted in the urine (total recovered dose)” value (“share … (total recovered dose)” for short) (in vivo [4]; iv) was “approximately 0.15%”, the “share … (total recovered dose)” value (in vivo [4]; po) was “No dival-L-dC was detected” and the dose excreted at 8 h ([5]; urine, 10 mg/kg) was roughly 26%. The dose excreted at 72 h ([5]; urine, 10 mg/kg) was 31%, the NOAEL at 360 h (in vivo [6]) was 2000 mg/kg and the “RBC, HGB and HCT lower at Day 17 compared to Day 1” value (in vivo [7]) was 15-27%. The “decrease of BUN at Day 17 compared to Day 1” value (in vivo [7]) was roughly 43%, the NOAEL (in vivo [7]; po) was 2000 mg/kg and the NOAEL at […] (in vivo [8]; po) was less than 500 mg/kg. For the same molecule, the Fa (in vivo [2]) was roughly 73%, the bioavailability (in vivo [2]) was 72.7 ± 22% and the NOAEL at 600 h (in vivo [9]) was less than 500 mg/kg. For the same molecule, the half-life (in vitro [10]) was roughly 0.65 h and the fraction unbound (in vitro [11]) was 0.867.

Work on `CC(C)[C@H](N)C(=O)O[C@@H]1C[C@@H](n2ccc(N)nc2=O)O[C@H]1CO` [3'-val-L-dC, 3'-valinyl ester of β-L-deoxyribocytosine] yielded a logD (physchem [1]; 0.02 m phosphate buffer, pH 7.2, log P (octanol/water)) of -1.53, a half-life ([12]; 0.2m tris-hcl, pH 7.4) of 7 h and a half-life ([12]; pH 1.2 (135 mM KCl-HCl buffer solution), read-out: half-life) greater than 48 h. For the same molecule, the bioavailability (in vivo [2]) was 85.1 ± 24.5% and the solubility (physchem [13]) was greater than 408 mg/mL.

For `Nc1ccn([C@@H]2CS[C@H](CO)O2)c(=O)n1` [3TC, (-)-enantiomer of cis-2-hydroxymethyl-5-(cytosin-1-yl)-1,3-oxathiolane, reference compound], the “S.I. (CC50/EC90)” value (HBV [14]; 2.2.15 cells) was > 5,000.

In the case of `CC(C)[C@H](N)C(=O)OC[C@@H]1O[C@H](n2ccc(N)nc2=O)C[C@H]1O` [5'-val-L-dC, 5'-L-valine ester of 2'-deoxy-β-L-cytidine hydrochloride], the “share … (total recovered dose)” value (in vivo [4]; iv) is reported as roughly 3.7%, the concentration at 2 h (in vivo [4]; iv, 10 mg/kg) is reported as 80 nM and the “share … (total recovered dose)” value (in vivo [4]; po) is reported as roughly 0.2%. For the same molecule, the “AUClast higher for females than males” value (in vivo [8]) was 25-50%, the “AUClast higher on Day 28 vs. Day 1” value (in vivo [8]) was 30-62% and the Tmax (in vivo [8]; po) was 1 to 2 h. For the same molecule, the “Tlast (median)” value [15] was 10 h, the “median Tmax” value ([15]; po) was 1 h and the bioavailability (in vivo [2]) was 39 ± 11.4%.

For `Nc1ccn([C@H]2C[C@H](O)[C@@H](CO)O2)c(=O)n1` [D-dC, D-Deoxycytidine], the “P(B/A)” value (physchem [1]; [25]) was 0.039 and the “log P (octanol/water)” value (physchem [1]; [25]) was -1.41.

For `O=c1[nH]c(=O)n([C@@H]2O[C@H](CO)[C@@H](O)[C@@H]2F)cc1I` [FIAU, fialuridine], the activity (in vitro [16]) was 203%, the activity at 336 h (in vitro [16]) was 86% and the “Lipid Droplet Formation” value (HepG2 cells; Conc. (µM): L-dC 10, FIAU 10, ZDV 50, ddC 1) was “positive”. For the same molecule, the “Mitochondrial Morphology” value (HepG2 cells; Conc. (µM): L-dC 10, FIAU 10, ZDV 50, ddC 1, electron microscopy) was “abnormal” and the “increase of lactic acid production compared to vehicle control” value (HepG2 cells; HepG2 cells) was 100%.

In the case of `Nc1ccn([C@@H]2C[C@@H](O)[C@H](CO)O2)c(=O)n1` [L-dC, 2'-deoxy-β-L-cytidine], the “EC50 VZV (HFF)” value (VZV) is reported as 18.6 µg/mL (≈ 0.0819 mM), the “EC50 EBV (Daudi)” value (EBV) is reported as greater than 50 µg/mL and the body weight (WHV [17]; compared to control animals, 28 days 0.01-10 mg/kg/day) is reported as “no weight loss”. For the same molecule, the toxicity (WHV [17]; four-week treatment phase and eight-week follow-up, 0.01-10 mg/kg/day orally) was “no drug-related toxicity; also recorded: No toxicity was observed”, the toxicity (WHV [18]; 12-week treatment phase and 12-week follow-up) was “no drug-related toxicity” and the end-of-treatment liver biopsies (WHV [18]; 12 weeks) was “no histomorphological evidence of fatty changes (microvesicular steatosis); also recorded: no evidence of fatty change (microvesicular steatosis)”. The “Lipid Droplet Formation” value (HepG2 cells) was “negative”, the CC50 (HepG2 cells; HepG2 cells, after 14 days of treatment) was greater than 2000 µM and the mutagenicity ([19]; concentrations up to 5000 µg/plate) was “not mutagenic”. For the same molecule, the mutagenicity ([19]; concentrations up to 5000 mg/plate, with and without rat liver S-9) was “no evidence of mutagenicity”, the EC50 (HIV-1) was greater than 200 µM and the AUC(0-t) ([20]; iv, 10 mg/kg) was 81.1 µM·h. The AUC(0-t) ([20]; po, 10 mg/kg) was 13.7 µM·h, the CC50 (2.2.15; 2.2.15) was greater than 2000 µM and the CC50 (2.2.15; 2.2.15 cells, 50% inhibition of neutral red dye uptake, combination study) was 3000 ± 96 µM. For the same molecule, the “S.I. (CC50/EC90)” value (HBV [14]; 2.2.15 cells) was 2,727 and the “HBV replication returned to 50% of pretreatment levels” value (HBV [14]; viral rebound after drug withdrawal, 2.2.15 cells) was no more than 18 day post-treatment.

`Nc1ccn([C@@H]2C[C@@H](O)[C@H](COP(=O)(O)OP(=O)(O)OP(=O)(O)O)O2)c(=O)n1` [L-dC-TP] gave an IC50 ([21]; endogenous polymerase assay, read-out: IC50 viral DNA pol (WHV DNA polymerase)) of 1.82 ± 0.23 µM, an intracellular metabolite level (Rats Primary Hepatocytes) of 14.2 ± 3.1 µM and an intracellular metabolite level [22] of 39.3 µM.

For `Cc1cn([C@@H]2C[C@@H](O)[C@H](CO)O2)c(=O)[nH]c1=O` [L-dT, β-L-2'-deoxythymidine, reference compound], the “S.I. (CC50/EC90)” value (HBV [23]) was 2,518 and the EC90 (HBV [14]; 10-fold reduction of HBV virion DNA levels, combination study) was 1.2 ± 0.1 µM.

With `O=c1ccn([C@@H]2C[C@@H](O)[C@H](CO)O2)c(=O)[nH]1` [L-dU, β-L-2'-deoxyuridine] the “share … (total recovered dose)” value (in vivo [4]; iv) was “approximately 2.5%”, the concentration (in vivo [4]; iv, 10 mg/kg) was 220 to 880 nM and the “share … (total recovered dose)” value (in vivo [4]; po) was “approximately 2.5%”. The concentration (in vivo [4]; po, 10 mg/kg, 8 h) was 390 nM, the “share of drug excreted in the urine (recovered dose)” value ([5]; in vivo) was “approximately 10%” and the “share of the dose recovered in the urine” value ([20]; iv, 10 mg/kg) was 4.0%. The “share … (total recovered dose)” value ([20]; po) was 29% and the “share … (total recovered dose)” value [24] was 23%.

With `O=c1ccn([C@@H]2C[C@@H](O)[C@H](COP(=O)(O)OP(=O)(O)OP(=O)(O)O)O2)c(=O)[nH]1` [L-dU-TP, β-L-2'-deoxyuridine 5'-triphosphate] the IC50 ([21]; target as printed, read-out: IC50 in vitro against hepatitis B virus DNA polymerase) was 5.26 µM, the intracellular metabolite level (Rats Primary Hepatocytes) was 46.9 ± 5.2 µM and the intracellular metabolite level [22] was 21.9 µM.

Molecule `CC(=O)Nc1ccn([C@@H]2C[C@@H](O)[C@H](CO)O2)c(=O)n1` [N^4-acetyl-L-dC, N^4-Acetyl-2'-deoxy-β-L-cytidine] has a half-life ([12]; pH 1.2, read-out: half-life) of 0.833 h.

With `Nc1ccn([C@H]2CC[C@@H](CO)O2)c(=O)n1` [ddC, zalcitabine] the activity (in vitro [16]) was 95 ± 4.4%, the activity at 336 h (in vitro [16]) was 13% and the inhibition at 336 h (in vitro [16]) was 87%. The “Lipid Droplet Formation” value (HepG2 cells) was “negative” and the “Mitochondrial Morphology” value (HepG2 cells) was “abnormal”.
